{"source": "ChEMBL document CHEMBL5465560", "about": "“Selectivity Literature for EUbOPEN Chemogenomic Library” (2024)", "key": {"[1]": {"target": "T1, Hormonally up-regulated neu tumor-associated kinase (Homo sapiens) (UniProt P57058)", "T1 sequence (whole entry)": "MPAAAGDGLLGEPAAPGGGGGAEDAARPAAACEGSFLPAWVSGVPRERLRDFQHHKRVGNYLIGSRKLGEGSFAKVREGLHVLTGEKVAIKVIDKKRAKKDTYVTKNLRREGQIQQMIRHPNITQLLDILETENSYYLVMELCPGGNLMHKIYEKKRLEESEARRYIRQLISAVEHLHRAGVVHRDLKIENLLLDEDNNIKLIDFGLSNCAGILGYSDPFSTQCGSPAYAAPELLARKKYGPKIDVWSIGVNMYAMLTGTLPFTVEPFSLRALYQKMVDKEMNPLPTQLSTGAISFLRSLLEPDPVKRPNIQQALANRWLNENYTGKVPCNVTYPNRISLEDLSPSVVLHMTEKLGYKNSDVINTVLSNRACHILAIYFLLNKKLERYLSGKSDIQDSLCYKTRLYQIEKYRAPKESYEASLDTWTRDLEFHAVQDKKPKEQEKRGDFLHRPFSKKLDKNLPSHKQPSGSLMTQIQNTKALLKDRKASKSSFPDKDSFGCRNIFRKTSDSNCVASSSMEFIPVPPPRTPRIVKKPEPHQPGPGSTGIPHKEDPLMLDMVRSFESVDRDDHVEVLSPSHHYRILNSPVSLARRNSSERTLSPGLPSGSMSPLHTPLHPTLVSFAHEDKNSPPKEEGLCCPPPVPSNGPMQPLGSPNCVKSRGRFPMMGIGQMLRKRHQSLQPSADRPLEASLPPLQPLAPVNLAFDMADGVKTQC", "assay": "Selectivity interaction (KinomeScan (DiscoverX)) EUB0001079a HUNK", "conditions": "at 1 µM"}, "[2]": {"target": "Serine/threonine-protein kinase PAK 2 (Homo sapiens) (UniProt Q13177)", "sequence (Q13177 whole entry)": "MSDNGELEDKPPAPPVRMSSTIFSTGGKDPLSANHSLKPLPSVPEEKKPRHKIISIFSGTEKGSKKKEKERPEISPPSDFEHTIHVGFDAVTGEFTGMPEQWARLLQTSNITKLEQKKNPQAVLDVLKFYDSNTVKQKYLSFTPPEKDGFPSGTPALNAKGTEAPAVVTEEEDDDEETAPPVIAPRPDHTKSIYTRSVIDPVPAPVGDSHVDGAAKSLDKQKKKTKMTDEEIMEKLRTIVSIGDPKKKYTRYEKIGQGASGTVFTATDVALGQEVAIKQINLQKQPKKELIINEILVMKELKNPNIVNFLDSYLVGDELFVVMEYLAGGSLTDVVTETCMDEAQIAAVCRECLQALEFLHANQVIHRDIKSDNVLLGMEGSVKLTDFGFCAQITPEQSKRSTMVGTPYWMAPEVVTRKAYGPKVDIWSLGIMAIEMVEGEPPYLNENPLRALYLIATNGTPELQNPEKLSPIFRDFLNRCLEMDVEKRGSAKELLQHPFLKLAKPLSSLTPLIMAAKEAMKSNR", "assay": "Selectivity interaction (KinomeScan (DiscoverX)) EUB0001079a PAK2", "conditions": "at 1 µM"}, "[3]": {"target": "ATP-sensitive inward rectifier potassium channel 11 (Homo sapiens) (UniProt Q14654)", "sequence (Q14654 whole entry)": "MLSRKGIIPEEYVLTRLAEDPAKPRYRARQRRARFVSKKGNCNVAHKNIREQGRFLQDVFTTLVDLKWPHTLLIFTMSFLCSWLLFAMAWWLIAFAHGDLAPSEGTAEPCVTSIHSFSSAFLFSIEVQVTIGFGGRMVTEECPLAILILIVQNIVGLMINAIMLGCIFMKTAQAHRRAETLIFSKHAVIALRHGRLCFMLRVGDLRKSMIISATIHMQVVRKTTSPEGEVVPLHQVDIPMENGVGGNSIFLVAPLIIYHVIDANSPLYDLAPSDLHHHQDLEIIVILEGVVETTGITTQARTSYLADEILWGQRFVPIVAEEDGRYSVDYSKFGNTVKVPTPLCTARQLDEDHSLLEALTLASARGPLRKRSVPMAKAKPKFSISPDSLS", "assay": "Selectivity interaction (Eurofins CEREP Diversity Profile (receptors and ion channels)) EUB0000279b KCNJ11", "conditions": "at 10 µM"}, "[4]": {"target": "T2, Ephrin type-B receptor 3 (Homo sapiens) (UniProt P54753)", "T2 sequence (whole entry)": "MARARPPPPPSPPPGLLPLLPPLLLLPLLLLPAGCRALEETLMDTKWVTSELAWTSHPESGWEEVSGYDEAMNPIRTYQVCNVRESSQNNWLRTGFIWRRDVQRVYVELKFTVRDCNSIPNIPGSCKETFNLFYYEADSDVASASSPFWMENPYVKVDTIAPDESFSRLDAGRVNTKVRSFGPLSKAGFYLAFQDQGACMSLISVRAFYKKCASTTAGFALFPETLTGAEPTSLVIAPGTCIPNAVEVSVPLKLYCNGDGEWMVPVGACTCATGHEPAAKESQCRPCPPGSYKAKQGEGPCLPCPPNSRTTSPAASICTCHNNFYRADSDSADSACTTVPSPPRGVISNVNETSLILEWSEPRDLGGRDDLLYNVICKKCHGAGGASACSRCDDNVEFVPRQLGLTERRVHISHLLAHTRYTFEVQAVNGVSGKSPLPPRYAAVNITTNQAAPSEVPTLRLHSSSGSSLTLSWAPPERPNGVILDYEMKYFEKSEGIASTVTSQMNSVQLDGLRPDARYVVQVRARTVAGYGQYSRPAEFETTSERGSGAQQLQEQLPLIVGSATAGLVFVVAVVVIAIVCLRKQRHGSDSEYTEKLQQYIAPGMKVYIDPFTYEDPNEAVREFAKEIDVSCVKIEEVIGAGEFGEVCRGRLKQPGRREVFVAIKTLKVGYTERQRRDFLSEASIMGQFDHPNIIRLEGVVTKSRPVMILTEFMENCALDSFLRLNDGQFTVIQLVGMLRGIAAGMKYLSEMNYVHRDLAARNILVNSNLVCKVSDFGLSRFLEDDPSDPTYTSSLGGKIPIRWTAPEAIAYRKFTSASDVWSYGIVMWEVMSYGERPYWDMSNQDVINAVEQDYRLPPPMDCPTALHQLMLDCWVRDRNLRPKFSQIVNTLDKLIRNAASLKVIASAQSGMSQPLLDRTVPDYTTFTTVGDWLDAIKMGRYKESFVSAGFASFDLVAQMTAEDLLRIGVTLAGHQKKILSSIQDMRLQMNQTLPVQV", "assay": "Selectivity interaction (KinomeScan (DiscoverX)) EUB0001619a EPHB3", "conditions": "at 1 µM"}, "[5]": {"target": "Mitogen-activated protein kinase kinase kinase kinase 5 (Homo sapiens) (UniProt Q9Y4K4)", "sequence (Q9Y4K4 whole entry, looked up)": "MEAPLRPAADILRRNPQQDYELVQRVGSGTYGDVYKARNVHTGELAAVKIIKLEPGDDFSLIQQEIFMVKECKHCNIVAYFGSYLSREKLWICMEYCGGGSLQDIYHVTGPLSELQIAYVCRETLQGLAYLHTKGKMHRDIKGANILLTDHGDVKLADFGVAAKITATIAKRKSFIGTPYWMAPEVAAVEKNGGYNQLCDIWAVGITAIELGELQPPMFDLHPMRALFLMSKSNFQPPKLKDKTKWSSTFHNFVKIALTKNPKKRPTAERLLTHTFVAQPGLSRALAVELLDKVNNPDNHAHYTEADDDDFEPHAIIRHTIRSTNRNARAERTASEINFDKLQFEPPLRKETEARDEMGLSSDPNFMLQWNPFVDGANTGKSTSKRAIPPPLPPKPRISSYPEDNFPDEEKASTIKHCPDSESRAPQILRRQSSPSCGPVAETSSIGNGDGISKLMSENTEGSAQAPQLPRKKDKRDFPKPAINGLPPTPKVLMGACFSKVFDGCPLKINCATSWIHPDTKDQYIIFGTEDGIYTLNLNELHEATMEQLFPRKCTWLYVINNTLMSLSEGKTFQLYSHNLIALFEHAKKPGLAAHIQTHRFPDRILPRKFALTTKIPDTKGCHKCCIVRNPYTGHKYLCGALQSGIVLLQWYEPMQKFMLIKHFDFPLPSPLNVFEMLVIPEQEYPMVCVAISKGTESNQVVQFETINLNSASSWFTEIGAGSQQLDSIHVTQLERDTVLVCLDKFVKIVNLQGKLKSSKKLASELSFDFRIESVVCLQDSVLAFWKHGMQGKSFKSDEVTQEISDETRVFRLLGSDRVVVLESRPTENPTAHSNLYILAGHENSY", "assay": "Selectivity interaction (ActivX KiNativ screen (ex vivo kinase selectivity in human PBMCs)) EUB0001619a MAP4K5", "format": "cell-based", "conditions": "PBMC, at 1 µM"}, "[6]": {"target": "T3, Dual specificity mitogen-activated protein kinase kinase 4 (Homo sapiens) (UniProt P45985)", "T3 sequence (whole entry)": "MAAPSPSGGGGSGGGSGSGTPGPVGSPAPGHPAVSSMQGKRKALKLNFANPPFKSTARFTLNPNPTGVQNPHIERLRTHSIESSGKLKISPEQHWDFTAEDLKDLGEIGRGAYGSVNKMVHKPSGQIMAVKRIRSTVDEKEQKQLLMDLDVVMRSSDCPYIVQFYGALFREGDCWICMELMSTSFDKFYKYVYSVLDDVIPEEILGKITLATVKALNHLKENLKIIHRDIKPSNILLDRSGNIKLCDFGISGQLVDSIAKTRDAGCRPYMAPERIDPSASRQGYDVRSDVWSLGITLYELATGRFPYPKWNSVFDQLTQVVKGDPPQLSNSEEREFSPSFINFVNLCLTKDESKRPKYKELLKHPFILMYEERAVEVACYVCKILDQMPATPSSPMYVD", "assay": "Selectivity interaction (ActivX KiNativ screen (ex vivo kinase selectivity in human PBMCs)) EUB0001619a MAP2K4", "format": "cell-based", "conditions": "PBMC, at 1 µM"}, "[7]": {"target": "5'-AMP-activated protein kinase catalytic subunit alpha-2 (Homo sapiens) (UniProt P54646)", "sequence (P54646 whole entry, looked up)": "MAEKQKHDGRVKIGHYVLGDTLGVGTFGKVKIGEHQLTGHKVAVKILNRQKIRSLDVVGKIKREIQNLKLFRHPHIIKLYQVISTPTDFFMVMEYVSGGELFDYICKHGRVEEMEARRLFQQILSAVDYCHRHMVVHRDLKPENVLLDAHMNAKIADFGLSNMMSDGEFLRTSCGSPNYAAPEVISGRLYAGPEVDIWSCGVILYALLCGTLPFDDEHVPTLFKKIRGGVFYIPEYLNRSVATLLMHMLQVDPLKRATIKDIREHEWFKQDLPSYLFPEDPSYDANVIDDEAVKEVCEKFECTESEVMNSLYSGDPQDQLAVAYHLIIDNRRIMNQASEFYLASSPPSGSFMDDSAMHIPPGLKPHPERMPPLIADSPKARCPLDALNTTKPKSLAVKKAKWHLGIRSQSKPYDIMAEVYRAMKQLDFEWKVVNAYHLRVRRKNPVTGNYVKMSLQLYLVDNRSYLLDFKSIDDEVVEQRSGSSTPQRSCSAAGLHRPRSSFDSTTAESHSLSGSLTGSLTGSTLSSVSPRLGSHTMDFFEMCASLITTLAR", "assay": "Selectivity interaction (ActivX KiNativ screen (kinase selectivity in THP-1 cell lysates)) EUB0000639a PRKAA2", "format": "subcellular", "conditions": "lysate, at 0.01 µM"}, "[8]": {"target": "RAF proto-oncogene serine/threonine-protein kinase (Homo sapiens) (UniProt P04049)", "sequence (P04049 whole entry)": "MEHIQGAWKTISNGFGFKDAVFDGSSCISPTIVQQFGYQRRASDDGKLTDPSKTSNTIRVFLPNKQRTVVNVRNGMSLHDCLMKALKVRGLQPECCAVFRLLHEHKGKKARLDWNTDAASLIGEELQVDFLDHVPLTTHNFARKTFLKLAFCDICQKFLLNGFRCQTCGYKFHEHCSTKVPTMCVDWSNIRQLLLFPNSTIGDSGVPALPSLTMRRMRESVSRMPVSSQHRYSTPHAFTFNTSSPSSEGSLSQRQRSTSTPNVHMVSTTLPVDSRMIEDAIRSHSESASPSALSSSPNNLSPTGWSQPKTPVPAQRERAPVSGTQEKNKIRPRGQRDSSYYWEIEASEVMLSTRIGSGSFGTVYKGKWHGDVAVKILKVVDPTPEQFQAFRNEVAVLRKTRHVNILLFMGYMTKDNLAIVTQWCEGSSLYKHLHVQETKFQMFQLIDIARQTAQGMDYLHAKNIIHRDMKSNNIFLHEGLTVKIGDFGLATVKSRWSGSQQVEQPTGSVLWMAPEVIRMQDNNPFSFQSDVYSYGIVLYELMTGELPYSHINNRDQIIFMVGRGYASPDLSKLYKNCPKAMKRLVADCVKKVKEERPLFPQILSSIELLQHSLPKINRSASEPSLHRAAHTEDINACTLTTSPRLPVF", "assay": "Selectivity interaction (Ambit KINOMEscan and KiNATiv profiling in Jurkat cells) EUB0000090b RAF1", "format": "cell-based", "conditions": "at 1 µM"}}}
{"compound": "Nc1cnc(N2CCc3cc(S(=O)(=O)Nc4c(F)cc(Cl)cc4F)cc(N4CCCC4=O)c32)nc1", "note": "[TP-020n]", "values": [{"measurement": "% of control", "setting": "[1]", "result": 99, "unit": "%"}, {"measurement": "% of control", "setting": "[2]", "result": 78, "unit": "%"}]}
{"compound": "CC(=O)c1cc(-c2ccccc2OCC2CC2)c2ncccn12", "values": [{"measurement": "% of control", "setting": "[3]", "result": 105, "unit": "%"}]}
{"compound": "N#Cc1cccc(-c2c[nH]c3ncnc(N4CCOCC4)c23)c1", "values": [{"measurement": "% of control", "setting": "[4]", "result": 100, "unit": "%"}, {"measurement": "% of inhibition", "setting": "[5]", "result": 13, "unit": "%"}, {"measurement": "% of inhibition", "setting": "[6]", "result": 2, "unit": "%"}]}
{"compound": "CC[C@@H]1[C@H](F)C(=O)N[C@@H]1COc1nccc2cc(C(N)=O)c(OC)cc12", "note": "[ZIMLOVISERTIB]", "values": [{"measurement": "% of inhibition", "setting": "[7]", "result": 14.5, "unit": "%"}]}
{"compound": "CN(C)C/C=C/C(=O)Nc1ccc(C(=O)N2CCCC(Nc3ncc(Cl)c(-c4c[nH]c5ccccc45)n3)C2)cc1", "note": "(stereo not drawn)", "values": [{"measurement": "% of control", "setting": "[8]", "result": 91, "unit": "%"}]}
